Experiment [1] concerns co-cultures of MNs with adult-derived myoblasts (hMA). Kind of experiment: myasthenia gravis model: light-induced muscle contraction in co-cultures. In kind it is cell-based, human. The conditions noted are these: PYR 10 μM on day 3; cultures treated with MG IgG (#1 & 2 combined) and complement; n=8. An excerpt:
Next we sought to address whether the functional neuromuscular co-cultures were suitable to model a classic human neuromuscular disease. Myasthenia gravis (MG) (Toyka et al., 1977; Verschuuren et al., 2013) is caused by the emergence of autoantibodies against proteins in the neuromuscular junction (e.g. the acetylcholine receptor, AChR). Binding of the pathogenic antibody to AChR activates the complement cascade, resulting in destruction of the neuromuscular endplate (Sahashi et al., 1980), which ultimately causes progressive muscle weakness in patients. We therefore quantified light-induced muscle contractions in functional co-cultures of MNs with adult-derived myoblasts (hMA) before (FIG. 4A, D) and after the incubation with IgG fractions (200 nM total IgG) from two MG patients with clearly elevated AChR antibody titers (#1 and #2). Sandoglobulin (SG) polyvalent IgG served as control. […] Next, we assessed if the myasthenic phenotype was reversible after washout of MG IgG and complement, mimicking plasmapheresis therapy (Gold et al., 2008). […]
Maturing co-cultures were observed under 10× brightfield illumination while intermittently opening the shutter for fluorescent light (470 nm, 2mW/mm^2, approx. 300 ms pulse). […] For the quantification of movement multiple representative high contrast regions were automatically traced (MetaMorph Software). […]

In experiment [2] the test system is myofibers in MN co-cultures with adult muscle (hMA). Kind of experiment: myasthenia gravis model: calcium imaging. In kind it is cell-based, human. The following applies: MG#1 IgG and complement cultures. The procedure:
To further characterize the myasthenic phenotype we performed calcium imaging experiments. […] Therefore cultures were pretreated with control and MG#1 IgG and human complement for 2 days. Calcium imaging was performed in regions with similar amounts of muscle fibers and dense innervation (FIG. 4K, L). […] In addition, the percentage of reactive fibers was reduced in cultures treated with MG#1 IgG and complement compared to controls (FIG. 4N, CTRL 78% vs. MG 32%, two-tailed unpaired t test, p<0.001, t=4.79). […] Finally we sought to confirm the complement attack on the neuromuscular junction. For this purpose, cultures treated with MG#1 IgG and human complement as well as cultures treated with CTRL IgG and human complement for 24 h were stained with an antibody recognizing the human complement fragment C3c. […] (FIG. 4O, P).
(§1) Myotubes or co-cultures on glass coverslips were incubated with the ratiometric calcium dye Fura-2 and imaged under continuous perfusion in normal Tyrode's solution. Myotubes were stimulated by acetylcholine. Co-cultures were illuminated for optogenetic stimulation for 10 ms at 470 nm (4 mW/mm2) every 5 s.
Serum (containing complement) from 5 healthy donors was pooled and added to the media where indicated (2% v/v). […]

For another experiment, the system named is rodent GSK3β homologs. The following applies: cited from earlier work.
Experiment [3] has as its system co-cultures of ChR2-expressing hESC-derived spinal motorneurons with human adult (hMA) and fetal (hMF) myofibers. Kind of experiment: light-induced muscle twitches in neuromuscular co-cultures. It counts as cell-based. The following applies: 2 μM, optogenetic stimulation 470 nm, all tested cultures. As for the experimental part:
To establish the neuromuscular co-culture, we used the purified ChR2-expressing spinal motorneurons (day 20-25) and plated them onto pre-differentiated skeletal myofibers (day 5-10). After plating, hESC-derived spinal MN cell bodies mostly remained within the neuronal clusters but extended axons across the adult and fetal muscle (up to 2 mm within the first week, FIG. 3A, E). Co-cultures were tested for the establishment of neuromuscular connectivity in weekly intervals. For this purpose the cultures were observed under bright field illumination and intermittently stimulated with blue light pulses. Six to eight weeks after initiation of the co-culture, the elongated cylindrical myoblast-derived muscle fibers remained morphologically intact and started to contract in response optogenetic stimulation (470 nm, 0.2 Hz, 300 ms pulse width). FIGS. 3B, F show mature co-cultures with both muscle types. FIG. 3C, G show the quantification of muscle twitches of individual fibers from such cultures. The lower panels show long term experiments over 8.5 min (FIG. 3C at 0.2 Hz, FIG. 3G at 0.1 Hz). […]
Maturing co-cultures were observed under 10× brightfield illumination while intermittently opening the shutter for fluorescent light (470 nm, 2mW/mm^2, approx. 300 ms pulse). […] For the quantification of movement multiple representative high contrast regions were automatically traced (MetaMorph Software).

Experiment [4] deals with light-responsive skeletal myotubes in neuromuscular co-cultures. Nature of the experiment: sharp electrode recording of light-induced myofiber action potentials. In kind it is cell-based, human. The conditions noted are these: 2 μM; 447 nm optogenetic stimulation 0.2 to 2 Hz. The procedure:
(§2) We next characterized key physiologic parameters in the functional neuromuscular cultures. Matured co-cultures were incubated with the calcium dye Fura2 and mounted into an imaging chamber for continuous perfusion. […] The lower panel of FIG. 3J confirms long-term stability of neuro-muscular excitability in a calcium imaging experiment over 45 minutes. In a separate study, skeletal myotubes (n=5), identified by their cylindrical and striated appearance under phase contrast microscopy and by their ability to undergo light-induced twitching were selected for intracellular recordings (FIG. 3K). Light-responsive myotubes were impaled with sharp electrodes and muscle APs were recorded during 447 nm optogenetic stimulation at frequencies from 0.2 to 2 Hz. Spike fidelity was 100% at 0.2 Hz, 93.3±6.7% at 0.5 Hz, 75±15.0% at 1 Hz and 80±10.0% at 2 Hz. […] To address the stability of neuromuscular connectivity over the course of several days and weeks, contractile regions (n=7) were assessed every 5 days.
On matured EYFP+ MNs whole-cell current clamp recordings were performed at room temperature. Light-evoked APs were elicited using a 447 nm diode laser (OEM Laser) with light pulses of 5 ms at approximately 1 mW/mm2. Myotubes contracting in response to light stimulation were impaled with a sharp electrode for intracellular recordings.

In experiment [5] the test system is myofibers in functional neuromuscular co-cultures. Kind of experiment: calcium imaging in neuromuscular co-cultures under optogenetic stimulation. The following applies: 470 nm optogenetic stimulation, Fura2; 6/6 cultures. It counts as cell-based, human. The procedure: as §2, §1

As to `CN(C)C(=O)Oc1ccc[n+](C)c1` [pyridostigmine], in experiment [1], the “change of movement after pyridostigmine in MG cultures” value is reported as “+22%”. Moreover, in experiment [2], the “percentage of reactive fibers after PYR in MG cultures” value is listed as “tendency towards a higher percentage of reactive fibers, which did not reach significance”. Moreover, the “light-induced calcium spike after PYR in MG cultures” value in experiment [2] (n=8) is “small but significant increase”.
As for `Cc1c[nH]c(-c2cnc(NCCNc3ccc(C#N)cn3)nc2-c2ccc(Cl)cc2Cl)n1` [CHIR99021, 6-(2-(4-(2,4-dichlorophenyl)-5-(4-methyl-1H-imidazol-2-yl)pyrimidin-2-ylamino)ethylamino)nicotinonitrile], in the experiment on rodent GSK3β homologs, the “IC50 values against rodent GSK3β homologs” value is reported as “nanomolar”.
For `CC(=O)O[C@H]1C[C@@H]2CC[C@@H]3[C@H](CC[C@@]4(C)[C@H]3C[C@H]([N+]3(C)CCCCC3)[C@@H]4OC(C)=O)[C@@]2(C)C[C@@H]1N1CCCCC1` [vecuronium], the “light induced muscle twitches” value in experiment [3] is recorded as “completely blocked”; in experiment [3] (listed as Vecuronium) it was “blocks light-evoked contractility”. In addition, the “light-induced APs in myofibers” value in experiment [4] is reported as “completely blocked light-induced APs in myofibers in a reversible manner”. Further, the “light-evoked calcium spikes in myofibers” value in experiment [5] is given as “could be blocked”.

Values taken from patent US20180231524A1, “IN VITRO METHODS OF IDENTIFYING MODULATORS OF NEUROMUSCULAR JUNCTION ACTIVITY” (MEMORIAL SLOAN-KETTERING CANCER CENTER, priority 2015, published 2018).
